Values joined by “and” are separate entries in the source; they are usually repeats but may differ in a detail not shown here. Equal values may be shown once. Positions of bridges follow the written chain, without caps; N, C: chain ends. Residues, ends and D or L forms follow the SMILES beside them.
Key:
[1] = biological target: T1, IGFBP-3 (Homo sapiens, UniProt P17936); assay: KIRA assay of IGF-I activity with IGF-I plus IGFBP-3 and peptide; assay type: cell-based
Description: (§1) C. In Vitro Activation (KIRA)
(§2) The ability of several synthetic peptides to block IGF-I binding to IGFBPs and release functional IGF-I was tested in a KIRA assay of IGF-I activity, as described in Example 1. Cells were treated with IGF-I alone, peptide alone, peptide plus IGF-I, IGF-I plus binding protein (IGFBP-1 or IGFBP-3), or IGF-I plus binding protein (IGFBP-1 or IGFBP-3) and peptide.
It is believed that this would drop to 30 uM with a 1:1 ratio.

[2] = biological target: T1, IGFBP-3; assay: BIAcore competition assay, IGFBP-3 binding to immobilized IGF-II; settings: 20 nM IGFBP-3; approximately 1500 RU immobilized IGF-II; read-out: IC50, inhibition of IGFBP-3 binding to IGF-II (BIAcore)
Description: D. BIAcore™ Competition Assay (for IGFBP-3 Binders)
IGF-II was immobilized on a dextran chip for inhibition assays using a BIAcore™ 2000 surface-plasmon-resonance device (BIAcore, Inc., Piscataway, N.J.) to measure free binding protein. IGF-II was biotinylated as described above, and injected over a chip to which streptavidin had been coupled (BIAcore, Inc.) to give approximately 1500 RU of immobilized IGF-II. […] Serial dilutions of peptide were mixed with a constant concentration (20 nM) of IGFBP-3. After incubation for ≧1 hour at room temperature, an aliquot of 20 μl was injected at a flow rate of 20 μl/min over the IGF-II chip. Following the injection, a response reading was taken to measure the relative amount of IGFBP-3 bound to the IGF-II.

[3] = system: endogenous IGFBPs present in human serum; assay: Displacement of ^125I-IGF-I from IGFBPs in human serum (FPLC-SEC); assay type: binding; settings: human serum; peptide at 0.2 mM
Description: To determine if the IGF mutant could displace IGF-I from endogenous IGFBPs present in human serum, the following experiment was performed. Radiolabeled rhIGF-I (^125-IGF-I) was incubated with normal human serum samples at a concentration of 33 ng/ml for 16 hr at 4° C. to allow for the formation of […] complexes. […] The samples (n=3) were then analyzed by FPLC size-exclusion chromatography (FPLC-SEC) to determine the relative size and amounts of the ^125I-IGF-I:IGFBP complexes.
Data are expressed as cpm per fraction (n=1).
This Example tests an IGFBP-3-specific peptide, BP15, for its ability to block the binding of ^125I-IGF-I in human serum. Human serum was incubated with ^125I-IGF-I±the peptide and the amount of tracer bound to IGFBPs via size-exclusion chromatography was measured.

[4] = biological target: T1, IGFBP-3; assay: BIAcore competition assay, IGFBP-3 binding to immobilized IGF-I
Description: A. BIAcore™ Competition Assay (for IGFBP-3 Binders)
IGF-I was immobilized on a dextran chip for inhibition assays using a BIAcore™ 2000 surface-plasmon-resonance device (BIAcore, Inc., Piscataway, N.J.) to measure free binding protein. […] Serial dilutions of peptide were mixed with a constant concentration (40 nM) of IGFBP-3. After incubation for >1 hour at room temperature, an aliquot of 20 μL was injected at a flow rate of 20 μL/min over the IGF-I chip. Following the injection, a response reading was taken to measure the relative amount of IGFBP-3 bound to the IGF-I.

[5] = biological target: T2, IGFBP-1 (Homo sapiens, UniProt P08833); assay: Biotin-BP plate (ELISA) assay, biotinylated IGFBP-1 binding to IGF-I
T2 construct: biotin (chemical label, EZ-LINK NHS-SS-Biotin)
T2 sequence (P08833 26-259): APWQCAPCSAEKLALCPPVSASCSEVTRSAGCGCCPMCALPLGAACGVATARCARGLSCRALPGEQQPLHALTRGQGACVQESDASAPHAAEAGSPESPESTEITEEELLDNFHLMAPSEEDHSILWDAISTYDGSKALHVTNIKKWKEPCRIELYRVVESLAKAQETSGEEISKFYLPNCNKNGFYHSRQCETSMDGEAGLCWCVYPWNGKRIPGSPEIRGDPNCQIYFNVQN
Description: 1. Biotin-BP Assay (for IGFBP-1 Binders)
(§3) For inhibition of IGFBP-1 binding, IGFBP-1 (as well as IGFBP-3 as a control) were biotinylated as described above. MAXISORP™plates were coated and blocked as described above, using 2 μg/mL IGF-I. In a separate plate, serial dilutions of peptide were premixed with a constant concentration (20 nM) of biotinylated IGFBP-1. After 20 min. at room temperature, the mixture was added to the IGF-I plate. The peptide/IGFBP mix was then removed and the plate was washed ten times with PBS buffer containing 0.05% TWEEN-20™ surfactant. Bound biotin-IGFBP-1 was then detected using streptavidin-conjugated horse radish peroxidase, and a chromogenic substrate.
A second series of peptides made use of non-natural amino acids to probe whether other structural features such as an added methyl group at the alpha carbon, or an isomer (D-alanine) could affect peptide binding to IGFBP-1.
Substitutions at the N-terminus or C-terminus yielded affinity improvements. […] All of these peptides had similar or improved apparent affinity for IGFBP-1 as compared with bp1-01 and bp1-02 and are thus expected to increase the availability of IGF-I in an in vitro cell culture assay.

[6] = biological target: T2, IGFBP-1; assay: KIRA assay of IGF-I activity with IGF-I plus IGFBP-1 and peptide; assay type: cell-based; settings: peptide plus IGF-I plus IGFBP-1; read-out: IC50 for blocking the inhibition of IGF-I activity by IGFBP-1 (KIRA)
Description: as §1, §2

[7] = biological target: T1, IGFBP-3; assay: Biotin-BP plate assay, biotinylated IGFBP-3 binding to IGF-I (control); settings: FIG. 34
Description: as §3

[8] = biological target: T2, IGFBP-1; assay: BIAcore kinetics on immobilized IGFBP-1; assay type: binding; settings: IGFBP-1 coupled to dextran chip
Description: The kinetics of bp1-01 peptide variants were examined in a BIAcore™ (BIAcore, Inc., Piscataway, N.J.) assay using IGFBP-1 covalently coupled via EDC/NHS (as described by the manufacturer) to a dextran chip. […] The latter implies a half-life for peptide dissociation from IGFBP-1 of approximately 28 sec. The association rate constant is moderately fast, consistent with the notion that the peptide may not undergo significant conformation change upon binding to IGFBP-1.

[9] = 40 nM IGFBP-3, 400 to 800 RU immobilized IGF-I, read-out: BIAcore Assay IC50, inhibition of IGF-I binding to IGFBP-3

T1 sequence (P17936 28-291): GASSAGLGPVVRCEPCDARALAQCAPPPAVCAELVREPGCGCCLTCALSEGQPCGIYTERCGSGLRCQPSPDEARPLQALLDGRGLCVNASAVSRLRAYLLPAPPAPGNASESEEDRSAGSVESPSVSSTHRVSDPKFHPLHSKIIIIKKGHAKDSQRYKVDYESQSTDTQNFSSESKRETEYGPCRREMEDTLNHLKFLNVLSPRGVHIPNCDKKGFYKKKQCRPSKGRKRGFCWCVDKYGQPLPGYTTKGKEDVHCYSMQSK

SMILES | IC50 believed to result with a 1:1 ratio (KIRA) ([1]; IGFBP-3:IGF-1 1:1 ratio, not tested) | IC50 ([1]; IGFBP-3:IGF-1 at a 3:1 ratio, read-out: IC50 for blocking of IGFBP-3 (activation of the KIRA assay)) | IC50 [2] | decrease in ^125I-IGF-I associated with the 150-KD IGF/IGFBP-3/ALS complex [3] | increase in the amount of free ^125I-IGF-I [3] | IC50 [4, 9] | IC50 ([4]; bp3-01-ox variants by BIAcore competition assay, read-out: IGF-I Inhibition IC50) | IGF-I Inhibition IC50 (mut)/IC50 (wt) ([4]; bp3-01-ox variants by BIAcore, wt = bp3-01-ox) | effect on IGF-I activity in KIRA with IGF-I plus IGFBP-3 ([1]; FIG. 37D) | IC50 ([5]; 20 nM biotinylated IGFBP-1, IGF-I coated plate, read-out: ELISA IC50, inhibition of IGF-I binding to IGFBP-1) | IGF-I Inhibition IC50 (mut)/IC50 (wt) ([5]; g8 bp1-01 selectants by ELISA plate assay, wt = bp1-01) | IC50 [6] | inhibition of biotinylated IGFBP-3 binding to IGF-I plate [7] | kon ([8]; read-out: association rate constant) | koff ([8]; read-out: dissociation rate constant / dissociation kinetics)
CC(C)C[C@@H]1NC(=O)[C@H](Cc2ccc(O)cc2)NC(=O)[C@H](Cc2c[nH]c3ccccc23)NC(=O)[C@H](CCC(=O)O)NC(=O)[C@H](C)NC(=O)[C@H](C(C)C)NC(=O)[C@@H]2CCCN2C(=O)[C@H](Cc2c[nH]c3ccccc23)NC(=O)[C@@H](NC(=O)[C@@H](NC(=O)[C@H](CCC(=O)O)NC(=O)[C@H](CCC(=O)O)NC(=O)[C@@H](N)CO)C(C)C)CSSC[C@@H](C(=O)N[C@@H](CC(N)=O)C(=O)O)NC1=O [BP15] (H-SEEVCWPVAEWYLCN-OH; disulfide 5-14; N-terminus and C-terminus assumed) | 30000 nM | 95000 nM | 780 nM | ~42% | 59% | 750 nM | 720 nM | 0.36 | – | – | – | – | – | – | –
CC(C)C[C@@H]1NC(=O)[C@H](Cc2ccc(O)cc2)NC(=O)[C@H](Cc2c[nH]c3ccccc23)NC(=O)[C@H](CCC(=O)O)NC(=O)[C@H](C)NC(=O)[C@H](C(C)C)NC(=O)[C@@H]2CCCN2C(=O)[C@H](Cc2c[nH]c3ccccc23)NC(=O)[C@@H](NC(=O)[C@@H](N)C(C)C)CSSC[C@@H](C(=O)N[C@@H](CC(N)=O)C(=O)O)NC1=O [BP17] (H-VCWPVAEWYLCN-OH; disulfide 2-11; N-terminus and C-terminus assumed) | – | – | 5100 nM | – | – | 9000 nM | – | – | – | – | – | – | – | – | –
CC(C)C[C@@H]1NC(=O)[C@H](Cc2c[nH]c3ccccc23)NC(=O)[C@H](CCC(N)=O)NC(=O)[C@H](CC(C)C)NC(=O)[C@@H]2CCCN2C(=O)CNC(=O)[C@H](C)NC(=O)[C@H](CCCNC(=N)N)NC(=O)[C@@H](NC(=O)CNC(=O)[C@@H](NC(=O)[C@H](CCC(=O)O)NC(=O)[C@@H](N)CO)C(C)C)CSSC[C@@H](C(=O)N[C@@H](CCC(=O)O)C(=O)N[C@@H](CCCCN)C(=O)N[C@@H](Cc2ccc(O)cc2)C(=O)N[C@@H](Cc2ccccc2)C(=O)NCC(N)=O)NC1=O [bp1-02] (H-SEVGCRAGPLQWLCEKYFG-NH2; disulfide 5-14; N-terminus assumed) | – | – | – | – | – | – | – | – | Neither of these peptides showed activity | ~50 nM and 50 nM | 0.37 | 187 nM | no inhibition | 230000 M⁻¹ s⁻¹ | 0.0503 s⁻¹

Source: patent US6632794B1, “Insulin-like growth factor agonist molecules” (Genentech, Inc., priority 1997, dated 2003)
